Results: patent US6514968B1, “Aminoalkoxy carbazoles for the treatment of cns diseases” (Pharmacia & Upjohn Company, priority 1999, dated 2003)
Counter-ions that a name gives are not always drawn.

What was measured:
[1] = target: T1, cloned human 5-HT6 receptor (Homo sapiens, UniProt P50406); test: 5-HT6 Receptor Binding Assay; conditions: [3H]-lysergic acid diethylamide (LSD) radioligand, membranes of Hela cells containing the cloned human 5-HT6 receptor, SPA beads; estimated IC50 converted to Ki by Cheng-Prusoff
T1 construct: host or cells: HeLa cells (G-418 selection), membrane preparation
Experimental: 5-HT6 Receptor Binding Assay
Growth of Cells and Membrane Preparation
Hela cells containing the cloned human 5-HT6 receptor were acquired from Dr. David R. Sibley's laboratory in National Institute of Health (see Sibley, D. R., J. Neurochemistry, 66, 47-56, 1996). Cells were grown in high glucose Dulbecco's modified Eagle's medium, supplemented with L-glutamine, 0.5% sodium pyruvate, 0.3% penicillin-streptomycin, 0.025% G-418 and 5% Gibco fetal bovine serum and then were harvested, when confluent, in cold phosphate-buffered saline.
Harvested intact cells were washed once in cold phosphate-buffered saline. The cells were pelleted and resuspended in 100 ml of cold 50 mM Tris, 5 mM EDTA and 5 mM EGTA, pH 7.4. Homogenization was with a Vir Tishear generator, 4 cycles for 30 seconds each at setting 50. The homogenized cells were centrifuged at 700 RPM (1000×g) for 10 minutes and the supernatant was removed. The pellet was resuspended in 100 ml of the above buffer and rehomogenized for 2 cycles. The rehomogenized cells were then centrifuged at 700 RPM (1000×g) for 10 minutes and the supernatant was removed. The combined supernatant (200ml) was centrifuged at 23,000 RPM (80,000×g) for 1 hour in a Beckman Rotor (42.1 Ti). The membrane pellet was resupended in 50-8-ml of assay buffer containing HEPES 20 mM, MgCl2 10 mM, NaCl 150 mM, EDTA 1 mM, pH 7.4 and stored frozen in aliqouts at −70° C.
The radioligand binding assay used [^3H]-lysergic acid diethylamide (LSD). The assay was carried out in Wallac 96-well sample plates by the addition of 11 μl of the test sample at the appropriate dilution (the assay employed 11 serial concentrations of samples run in duplicate), 11 μl of radioligand, and 178 μl of a washed mixture of WGA-coated SPA beads and membranes in binding buffer. The plates were shaken for about 5 minutes and then incubated at room temperature for 1 hour. The plates were then loaded into counting cassettes and counted in a Wallac MicroBeta Trilux scintillation counter.
Binding Constant (Ki) Determination
Eleven serial dilutions of test compounds were distributed to assay plates using the PE/Cetus Pro/Pette pipetter. These dilutions were, followed by radioligand and the bead-membrane mixture prepared as described above. The specifically bound cpm obtained were fit to a one-site binding model using GraphPad Prism ver. 2.0. Estimated IC50 values were converted to Ki values using the Cheng-Prusoff equation (Cheng, Y. C. et al., Biochem. Pharmacol., 22, 3099-108, 1973).

T1 sequence (P50406 whole entry): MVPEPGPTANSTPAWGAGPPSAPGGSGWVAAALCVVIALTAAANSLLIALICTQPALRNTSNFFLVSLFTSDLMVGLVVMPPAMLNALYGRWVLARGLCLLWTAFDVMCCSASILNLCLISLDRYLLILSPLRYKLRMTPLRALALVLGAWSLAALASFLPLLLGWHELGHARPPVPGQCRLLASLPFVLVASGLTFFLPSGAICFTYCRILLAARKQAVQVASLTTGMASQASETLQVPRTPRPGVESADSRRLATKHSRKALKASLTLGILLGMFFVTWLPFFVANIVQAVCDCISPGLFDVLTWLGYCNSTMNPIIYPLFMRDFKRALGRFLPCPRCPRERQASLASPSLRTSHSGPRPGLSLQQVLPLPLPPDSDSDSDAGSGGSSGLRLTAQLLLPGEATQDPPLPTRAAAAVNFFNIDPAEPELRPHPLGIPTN

CCN(CC)CCOc1cccc2c1c1cccc(Cl)c1n2Cc1ccccc1 [Example 2, N-{2-[(9-Benzyl-8-chloro-9H-carbazol-4-yl)oxy]ethyl}-N,N-diethylamine]
Ki [1]: 6 nM
melting point: 73.5 to 75 °C

CCN(CC)CCOc1cccc2c1c1cc(Cl)ccc1n2Cc1ccccc1 [Example 43, N-{2-[(9-Benzyl-6-chloro-9H-carbazol-4-yl)oxy]ethyl}-N,N-diethylamine]
Ki [1]: 182 nM
melting point: 96 to 97.5 °C

O=CNCCOc1cccc2c1c1ccccc1n2Cc1ccccc1 [Example 33, N-{2-[(9-benzyl-9H-carbazol-4-yl)oxy]ethyl}formamide]
Ki [1]: 211 nM
melting point: 161 to 162 °C

O=C(O)/C=C\C(=O)O.OCCNCCOc1cccc2c1c1ccccc1n2Cc1ccccc1 [Example 49, 2-({2-[(9-benzyl-9H-carbazol-4-yl)oxy]ethyl}amino)-1-ethanol]
Ki [1]: 4.5 nM
melting point: 160 °C

CCN(CC)CCOc1cccc2c1c1ccccc1n2Cc1ccccc1 [Example 1, N-{2-[(9-Benzyl-9H-carbazol-4-yl)oxy]ethyl}-N,N-diethylamine]
Ki [1]: 24 nM
melting point: 79 to 80.5 °C

CCN(CC)CCOc1cccc2c1c1cccc(F)c1n2Cc1ccccc1 [Example 7, N-{2-[(9-Benzyl-8-fluoro-9H-carbazol-4-yl)oxy]ethyl}-N,N-diethylamine]
Ki [1]: 2.6 nM
melting point: 60 to 60.5 °C

CNCCOc1cccc2c1c1cc(C)ccc1n2Cc1ccccc1 [Example 47, N-{2-[(9-Benzyl-6-methyl-9H-carbazol-4-yl)oxy]ethyl}-N-methylamine]
Ki [1]: 2.2 nM
melting point: 96 to 96.75 °C

CCN(CC)CCOc1cccc2c1c1cc(F)ccc1n2Cc1ccccc1 [Example 44, N-{2-[(9-Benzyl-6-fluoro-9H-carbazol-4-yl)oxy]ethyl}-N,N-diethylamine]
Ki [1]: 180 nM
melting point: 68 to 69 °C

Cc1nc(Cn2c3ccccc3c3c(OCCN)cccc32)cs1 (as salt: methane sulfonate) [Example 51, 2-({9-[(2-Methyl-1,3-thiazol-4-yl)methyl]-9H-carbazol-4-yl}oxy)ethylamine]
melting point: 228.5 to 229 °C

Cc1ccc2c(c1)c1c(OCCN)cccc1n2Cc1ccccc1.O=C(O)/C=C\C(=O)O [Example 46, 2-[(9-Benzyl-6-methyl-9H-carbazol-4-yl)oxy]ethylamine]
Ki [1]: 6.1 nM
melting point: 187.5 to 188 °C

NCCOc1cccc2c1c1ccccc1n2Cc1csc2ccc(Cl)cc12 (as salt: methane sulfonate) [Example 50, 2-({9-[(5-Chloro-1-benzothiophen-3-yl)methyl]-9H-carbazol-4-yl}oxy)ethylamine]
melting point: > 256 °C

CCN(CC)CCOc1cccc2c1c1cccc(Cl)c1n2Cc1ccc(F)cc1 [Example 3, N-(2-{[8-Chloro-9-(4-fluorobenzyl)-9H-carbazol-4-yl]oxy}ethyl)-N,N-diethylamine]
Ki [1]: 22 nM
melting point: 104.5 to 105.5 °C

CNCCOc1cccc2c1c1ccccc1n2Cc1ccccc1.O=C(O)/C=C\C(=O)O [Example 34, N-{2-[(9-Benzyl-9H-carbazol-4-yl)oxy]ethyl}-N-methylamine]
Ki [1]: 5.7 nM
melting point: 182.5 to 184.5 °C

c1ccc(Cn2c3ccccc3c3c(OCCN4CCCCC4)cccc32)cc1 [Example 39, 9-Benzyl-4-[2-(1-piperidinyl)ethoxy]-9H-carbazole]
Ki [1]: 12 nM
melting point: 113.5 to 114.5 °C

COCCNCCOc1cccc2c1c1ccccc1n2Cc1ccccc1.O=C(O)/C=C\C(=O)O [Example 36, N-{2-[(9-Benzyl-9H-carbazol-4-yl)oxy]ethyl}-N-(2-methoxyethyl)amine]
Ki [1]: 16 nM
melting point: 175 to 175.5 °C

NCCOc1cccc2c1c1cccc(F)c1n2Cc1ccccc1 [Example 41, 2-[(9-Benzyl-8-fluoro-9H-carbazol-4-yl)oxy]ethylamine]
Ki [1]: 2.4 nM
melting point: 122.25 to 123 °C

c1ccc(Cn2c3ccccc3c3c(OCCNCC4CCCCC4)cccc32)cc1 [Example 19, 2-[(9-benzyl-9H-carbazol-4-yl)oxy]-N-(cyclohexylmethyl)-1-ethanamine]
Ki [1]: 311 nM

c1ccc(Cn2c3ccccc3c3c(OCCN4CCCC4)cccc32)cc1 [Example 38, 9-Benzyl-4-[2-(1-pyrrolidinyl)ethoxy]-9H-carbazole]
Ki [1]: 6.9 nM

CCN(CC)CCOc1cccc2c1c1cccc(F)c1n2Cc1ccc(F)cc1 [Example 42, N,N-Diethyl-N-(2-{[8-fluoro-9-(4-fluorobenzyl)-9H-carbazol-4-yl]oxy}ethyl)amine]
Ki [1]: 20 nM
melting point: 59 to 60 °C
